The supplement of paper PMC10949913

Assays:
Conditions in all cases: 48 h
NCI-H295R [1] = assay: AC50 viability; higher = less potent
Procedure, shortened: (§1)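 In 1,536-well plates, 500–1,000 cells/well of three adrenocortical carcinoma cell lines in 5 µL medium received 23 nL of each library compound across 11 concentrations. At 48 h, CellTiter-Glo was incubated for 15 minutes at room temperature and luminescence measured. Per-plate normalisation used vehicle and empty-well controls, and only inhibitory or non-responding curve classes were kept when fitting concentration-response curves for AC50 and area under the curve.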

NCI-H295R [2] = assay: area under concentration-response curve (viability) (AUC (a.u.)); higher = less active
Procedure, shortened: as §1

CU-ACC2 = assay: as above
Procedure, shortened: as §1

CU-ACC1 = assay: as above
Procedure, shortened: as §1

Row | Compound | AC50 viability (NCI-H295R [1]) [µM] | area under concentration-response curve (NCI-H295R [2]) | area under concentration-response curve (CU-ACC2) | area under concentration-response curve (CU-ACC1)
1 | N#Cc1c(NC(=O)c2cccc3ccccc23)sc2c1CCCC2 | 0.372 | 458 | 551 | 480
2 | c1cn2cc(-c3ccc4cn[nH]c4c3)nc(Nc3ccc(N4CCOCC4)cc3)c2n1 | 7.42 | 497 | 568 | 509
3 | Cc1ncc(NC(=O)c2cccc(C(F)(F)F)c2)cc1-c1cnc(OC2CCOCC2)c(N2CCOCC2)c1 | 20.9 | 560 | 535 | 541
4 | COc1ccc(N(C)c2nc(C)nc3ccccc23)cc1 | 0.00934 | 401 | 410 | 491
5 | C/C(=C\c1csc(C)n1)[C@@H]1C[C@@H]2O[C@]2(C)CCC[C@H](C)[C@H](O)[C@@H](C)C(=O)C(C)(C)[C@@H](O)CC(=O)O1 | 0.0118 | 346 | 548 | 467
6 | CC(C)(C)C1=CC(=C(NC(=O)C/2=C/NC3=C(C=CC=C3)C2=O)C=C1O)C(C)(C)C | 18.6 | 426 | 572 | 532
7 | CC[C@]1(O)C[C@H]2CN(CCC3=C([NH]C4=C3C=CC=C4)[C@@](C2)(C(=O)OC)C5=C(OC)C=C6N(C)[C@H]7[C@](O)([C@H](OC(C)=O)[C@]8(CC)\C=C/CN9CC[C@]7([C@H]89)C6=C5)C(=O)OC)C1 | 3.32 | 444 | 560 | 504
8 | O=C(Nc1ccncc1)C(=O)c1cn(Cc2ccc(Cl)cc2)c2ccccc12 | 0.372 | 418 | 419 | 471
9 | C/C=C(/C)C(=O)O[C@H]1C(C)=C2[C@H]([C@@H]1OC(=O)CCCCCCC)[C@@](C)(OC(C)=O)C[C@H](OC(=O)CCC)[C@@]1(O)[C@H]2OC(=O)[C@@]1(C)O | 10.5 | 498 | 344 | 465
10 | Cc1ccc([S+](=O)([O-])Nc2cc(-c3ccc(C#N)s3)ccc2C)cc1 | 0.0417 | 373 | 507 | 506
11 | COC(=O)Nc1ccc(-c2nc(N3CCOCC3)c3cnn(C4CCN(Cc5cccnc5)CC4)c3n2)cc1 | 16.6 | 444 | 546 | 499
12 | CCOC(=O)[C@H](CCc1ccccc1)N[C@@H](C)C(=O)N1CCC[C@H]1C(=O)O | 10.5 | 417 | 458 | 300
13 | COc1ccccc1C(=O)Nc1cc2c(cc1N1CCCCC1)n(C)c(=O)n2C | 16.6 | 422 | 434 | 426
14 | Nc1ncnc2c1ncn2[C@@H]1O[C@H](CO)C[C@H]1O | 20.9 | 528 | 612 | 550
15 | COC(=O)Nc1nc2cc(C(=O)c3ccccc3)ccc2[nH]1 | 0.417 | 412 | 475 | 440
16 | c1ccc(CNc2nc(N3CCOc4ccccc43)nc3c2CCCC3)cc1 | 20.9 | 481 | 528 | 449
17 | CCCCc1oc2ccc(N[S+](C)(=O)[O-])cc2c1C(=O)c1ccc(OCCCN(CCCC)CCCC)cc1 | 7.42 | 486 | 563 | 477
18 | CC(C)(O)[C@H]1CC[C@H](Nc2ccc3ncc(-c4cccc(C(F)(F)F)c4)n3n2)CC1 | 11.8 | 460 | 490 | 434
19 | O=C1\C=C(OC2=C1SC=C2C3=CC=C4OCCOC4=C3)\N5CCOCC5 | 0.0742 | 350 | 276 | 293
20 | CO[C@H]1C[C@H]2OC[C@@]2(OC(C)=O)[C@H]3[C@H](OC(=O)C4=CC=CC=C4)[C@]5(O)C[C@H](OC(=O)[C@H](O)[C@@H](NC(=O)OC(C)(C)C)C6=CC=CC=C6)/C(=C(/[C@@H](OC)C(=O)[C@]13C)C5(C)C)C | 0.934 | 382 | 565 | 520
21 | COc1cc([C@@H]2c3cc4c(cc3[C@H](O)[C@H]3COC(=O)[C@@H]23)OCO4)cc(OC)c1OC | 0.934 | 453 | 467 | 504
22 | COc1ccc([S+](=O)([O-])Nc2cc(-c3csc(C#N)c3)ccc2C)cc1 | 0.0934 | 393 | 529 | 489
23 | NC/1=N/C2=C([NH]C=N2)C(=S)N1 | 10.5 | 533 | 609 | 511
24 | O=C\1NC(=O)\C(=C1C2=C[NH]C3=C2C=CC=C3)C4=C[NH]C5=C4C=CC=C5 | 16.6 | 510 | 562 | 504
25 | COc1cc(OC)c(/C=C/[S+](=O)([O-])Cc2ccc(OC)c(OP(=O)(O)O)c2)c(OC)c1 | 0.0295 | 407 | 484 | 503
26 | COc1ccc(-n2c(C)c([N+](=O)[O-])c3ccc(O)cc32)cc1 | 14.8 | 549 | 615 | 519
